Data: ChEMBL document CHEMBL3714749, “Quinoxaline derivatives as gpr6 modulators” (2014)

Each compound was assayed against G-protein coupled receptor 6 (Homo sapiens, UniProt P46095) (assay: Activity at GPR6 (unknown origin) expressed in CHOK1 cells assessed as inhibition of constitutive cAMP activity incubated for 45 mins by HTRF based cAMP detection assay).
Format: functional, cell-based, CHO-K1

Sequence of G-protein coupled receptor 6 (P46095 whole entry): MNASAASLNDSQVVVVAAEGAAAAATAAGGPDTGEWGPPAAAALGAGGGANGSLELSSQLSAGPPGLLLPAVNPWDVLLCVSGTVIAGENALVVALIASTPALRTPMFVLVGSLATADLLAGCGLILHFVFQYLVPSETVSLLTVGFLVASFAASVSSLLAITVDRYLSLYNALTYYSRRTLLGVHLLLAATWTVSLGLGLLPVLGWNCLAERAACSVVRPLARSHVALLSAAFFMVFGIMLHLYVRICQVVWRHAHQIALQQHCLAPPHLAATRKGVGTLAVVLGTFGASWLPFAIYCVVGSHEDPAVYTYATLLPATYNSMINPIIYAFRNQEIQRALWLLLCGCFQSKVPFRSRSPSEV

Row | SMILES | IC50
1 | Fc1ccc(Cl)cc1CN1CCN(c2nc3cnccc3nc2NC2CC2)CC1 | 29 nM
2 | Cc1nnc(Nc2nc3ccccc3nc2N2CCN(Cc3cc(Cl)ccc3Cl)CC2)nc1C | 17800 nM
3 | COc1ccc(CN2CCN(c3nc4cnc(N5CCOCC5)cc4nc3NC3CC3)CC2)c(F)c1 | 92 nM
4 | Fc1ccc(CC2CCN(c3nc4cc(F)ccc4nc3NC3CC3)CC2)c(F)c1 | 72 nM
5 | COc1ccc(C(=O)C2CCN(c3nc4cnncc4nc3NC(C)C)CC2)c(F)c1 | 54 nM
6 | O=C(c1cc(F)ccc1Cl)C1CCN(c2nc3cnccc3nc2NC2CC2)CC1 | 62 nM
7 | CC(C)OCCNc1nc2ccccc2nc1N1CCN(Cc2cc(Cl)ccc2Cl)CC1 | 3330 nM
8 | COc1ccc(CC2CCN(c3nc4cnc(C#N)cc4nc3NC(C)C)CC2)c(F)c1 | 26 nM
9 | Cc1cc2nc(NC3CC3)c(N3CCC([C@H](F)c4cc(F)ccc4F)CC3)nc2cn1 | 11 nM
10 | O=C(c1c(F)cc(Cl)cc1F)C1CCN(c2nc3cnccc3nc2NC2CC2)CC1 | 200 nM
11 | Clc1ccc(Cl)c(CN2CCN(c3nc4ccccc4nc3NC3CCOCC3)CC2)c1 | 4070 nM
12 | O=C(c1cccc(Cl)c1)C1CCN(c2nc3cnccc3nc2NC2CC2)CC1 | 11000 nM
13 | Clc1ccc(Cl)c(CN2CCN(c3nc4ccccc4nc3Nc3cnccn3)CC2)c1 | 2340 nM
14 | N#Cc1ccc2nc(Nc3ccon3)c(N3CCN(C(=O)c4ccc(Cl)cc4)CC3)nc2c1 | 15400 nM
15 | Fc1ccc(CN2CCN(c3nc4ccncc4nc3NCC(F)F)CC2)c(F)c1 | 230 nM
16 | Fc1ccc([C@H](F)C2CCN(c3nc4cnncc4nc3NC3CC3)CC2)c(F)c1 | 22 nM
17 | Cc1cc2nc(NC3CC3)c(N3CCC(Cc4ccc(F)cc4F)CC3)nc2cn1 | 20 nM
18 | Fc1cc(F)c(CN2CCN(c3nc4cnccc4nc3NC3CC3)CC2)cc1F | 50 nM
19 | Cc1cccc(CN2CCN(c3nc4ccccc4nc3NC3CC3)CC2)c1C | 3640 nM
20 | N#Cc1ccc2nc(N3CCN(Cc4cc(Cl)ccc4Cl)CC3)c(Nc3cccnc3)nc2c1 | 440 nM

Row | SMILES | IC50
21 | N#Cc1ccc2nc(NC3CC(=O)C3)c(N3CCN(Cc4cc(Cl)ccc4Cl)CC3)nc2c1 | 97 nM
22 | N#Cc1ccc2nc(N3CCN(C(=O)c4ccc(Cl)cc4)CC3)c(NC3CC3)nc2c1 | 340 nM
23 | Fc1cnc(Cl)c(CN2CCN(c3nc4ccccc4nc3NC3CC3)CC2)c1 | 20400 nM
24 | Fc1ccc(CN2CCN(c3nc4cnncc4nc3NC3CC3)CC2)c(F)c1 | 260 nM
25 | O=C(c1nccc2nc(NC3CC3)c(N3CCC([C@@H](F)c4ccc(F)cc4F)CC3)nc12)N1CCOCC1 | 7 nM
26 | COc1cccc(OC2CCN(c3nc4cnncc4nc3NC(C)C)CC2)c1 | 1000 nM
27 | N#Cc1cc2nc(NC3CC3)c(N3CCC([C@@H](F)c4ccc(F)cc4F)CC3)nc2cn1 | 17 nM
28 | N#Cc1cc2nc(NC3CC3)c(N3CCC(Cc4ccc(F)cc4F)CC3)nc2cn1 | 15 nM
29 | O=C(c1cc(Cl)ccc1F)C1CCN(c2nc3cnccc3nc2NC2CC2)CC1 | 35 nM
30 | CC(C)(C)Nc1nc2cc(C#N)ncc2nc1N1CCC(Oc2ccc(F)cc2F)CC1 | 538 nM
31 | O=C(c1c(F)cccc1F)C1CCN(c2nc3cnccc3nc2NC2CC2)CC1 | 2180 nM
32 | CC(C)Nc1nc2cnncc2nc1N1CCC([C@@H](F)c2ccc(F)cc2F)CC1 | 14 nM
33 | O=S(=O)(c1ccccc1)N1CCN(c2nc3ccccc3nc2Nc2cccnc2)CC1 | 4630 nM
34 | Fc1ccc(OC2CCN(c3nc4cnncc4nc3NC3CC3)CC2)c(F)c1 | 18 nM
35 | O=C(c1c(F)cccc1Cl)C1CCN(c2nc3cnccc3nc2NC2CC2)CC1 | 4900 nM
36 | O=C(c1ccccc1Br)C1CCN(c2nc3cnccc3nc2NC2CC2)CC1 | 78 nM
37 | N#Cc1ccc2nc(NC3CC3)c(N3CCC(Oc4ccc(F)cc4F)CC3)nc2c1 | 90 nM
38 | N#Cc1ccc2nc(NC3CC3)c(N3CCN(S(=O)(=O)c4ccc(C(F)(F)F)cc4Cl)CC3)nc2c1 | 1300 nM
39 | CC[C@H](C)Nc1nc2cnncc2nc1N1CCC(Oc2ccc(OC)cc2F)CC1 | 21 nM

The remaining compounds from weak to strong by IC50, led by results:

Row | IC50 | SMILES
40 | 105000 nM | Cc1cc(CN2CCN(c3nc4ccccc4nc3NC3CC3)CC2)no1
41 | 9440 nM | O=S(=O)(c1ccccc1)N1CCN(c2nc3cc(F)ccc3nc2NC2CC2)CC1
42 | 7210 nM | N#Cc1cccc(C(=O)C2CCN(c3nc4cnccc4nc3NC3CC3)CC2)c1
43 | 5620 nM | N#Cc1ccc2nc(NC3CC3)c(N3CCN(S(=O)(=O)c4cccc(Cl)c4)CC3)nc2c1
44 | 4810 nM | O=C(c1csc(Cl)c1)C1CCN(c2nc3cnccc3nc2NC2CC2)CC1
45 | 3360 nM | COc1ccc2nc(N3CCN(Cc4cc(Cl)ccc4Cl)CC3)c(NC3CC3)nc2c1
46 | 2290 nM | O=C(c1ccsc1)C1CCN(c2nc3cnccc3nc2NC2CC2)CC1
47 | 1670 nM | Clc1ccc(Cl)c(CN2CCN(c3nc4ccccc4nc3Nc3cccnn3)CC2)c1
48 | 1640 nM | Clc1ccc(Cl)c(CN2CCN(c3nc4cccc(Br)c4nc3NC3CC3)CC2)c1
49 | 1570 nM | C[C@@H](CO)Nc1nc2ccccc2nc1N1CCN(Cc2cc(Cl)ccc2Cl)CC1
50 | 1100 nM | Fc1ccc(F)c(OC2CCN(c3nc4cnccc4nc3NC3CC3)CC2)c1
51 | 960 nM | N#Cc1ccc2nc(NCCF)c(N3CCN(C(=O)c4ccc(Cl)cc4)CC3)nc2c1
52 | 939 nM | COc1ccc(CN2CCN(c3nc4cnc(C(=O)N(C)C)cc4nc3NC3CC3)CC2)c(F)c1
53 | 720 nM | Cc1cc(C(=O)N2CCN(c3nc4ccccc4nc3NC3CC3)CC2)ccc1Cl
54 | 478 nM | CSc1ccc(F)c(C(=O)C2CCN(c3nc4cnccc4nc3NC3CC3)CC2)c1
55 | 400 nM | Fc1cc(F)c(CN2CCN(c3nc4ccncc4nc3Nc3cccnc3)CC2)cc1F
56 | 390 nM | N#Cc1ccc2nc(Nc3cccnc3)c(N3CCC(Cc4ccc(F)cc4F)CC3)nc2c1
57 | 390 nM | N#Cc1ccc2nc(NCCC(F)(F)F)c(N3CCN(Cc4ccc(F)cc4F)CC3)nc2c1

Row | IC50 | SMILES
58 | 380 nM | Cc1ccc(C)c(CN2CCN(c3nc4cnccc4nc3NC3CC3)CC2)c1
59 | 190 nM | COc1ccc(OC2CCN(c3nc4cnccc4nc3NC3CC3)CC2)cc1
60 | 170 nM | Fc1cc(F)c(OC2CCN(c3nc4cnccc4nc3NC3CC3)CC2)c(F)c1
61 | 140 nM | Fc1ccc(CC2CCN(c3nc4cc(F)c(F)cc4nc3NC3CC3)CC2)c(F)c1
62 | 78 nM | Fc1ccc(CC2CCN(c3nc4ccncc4nc3NCC(F)F)CC2)c(F)c1
63 | 67 nM | O=C(c1ccccc1Cl)C1CCN(c2nc3cnccc3nc2NC2CC2)CC1
64 | 56 nM | Clc1ccc(Cl)c(CN2CCN(c3nc4ccncc4nc3NC3CC3)CC2)c1
65 | 54 nM | Oc1ccc(OC2CCN(c3nc4ccncc4nc3NC3CC3)CC2)c(F)c1
66 | 32 nM | Clc1ccc(Cl)c(CN2CCN(c3nc4cnccc4nc3NC3CC3)CC2)c1
67 | 30 nM | Fc1cc(Cl)ccc1OC1CCN(c2nc3cnncc3nc2NC2CC2)CC1
68 | 27 nM | Fc1ccc(CC2CCN(c3nc4ccncc4nc3NC3CC3)CC2)c(F)c1
69 | 26 nM | O=C(c1cc2nc(NC3CC3)c(N3CCC([C@@H](F)c4ccc(F)cc4F)CC3)nc2cn1)N1CCC1F (some centres undefined)
70 | 20 nM | COc1ccc(OC2CCN(c3nc4cnncc4nc3NC3CC3)CC2)c(F)c1
71 | 20 nM | CC(C)Nc1nc2cnccc2nc1N1CCC(Oc2ccc(F)cc2F)CC1
72 | 20 nM | Fc1ccc(F)c(C(F)C2CCN(c3nc4cnccc4nc3NC3CC3)CC2)c1 (centres undefined)
73 | 6 nM | O=C(c1nccc2nc(NC3CC3)c(N3CCC([C@H](F)c4ccc(F)cc4F)CC3)nc12)N1CCOCC1
74 | 6 nM | CC(C)Nc1nc2cnncc2nc1N1CCC(C(F)c2ccc(F)cc2F)CC1 (centres undefined)
